Laboratory results reported in patent US11197908B2, “Peptoids and methods for attenuating inflammatory response” (THE BOARD OF TRUSTEES OF THE UNIVERSITY OF ARKANSAS, priority 2018, dated 2021).
Where two headings read alike, the source gives them in different places. Where a SMILES comes first, the peptide text is derived from it. [ ]: non-standard residue; d: D form. N(1S-Me-propyl)Gly = CC[C@H](C)NCC(=O)O; Nspe = C[C@H](NCC(=O)O)c1ccccc1; Nlys = NCCCCNCC(=O)O

Experiments:
IL-8 [1] = test: IL-8 in supernatant of THP-1 macrophages co-incubated with peptoid and LPS (ELISA); type: cell-based, human; conditions: 3 days, vs LPS alone
Experimental: THP-1 monocytes were differentiated into macrophages through exposure to phorbol 12-myristate 13-acetate (PMA) for three days prior to experimentation 10. […] Upon differentiation, these cells were then incubated (3 days) with media containing JPT1a (50, 10, or 2 μM) alone or JPT1a (50, 10, or 2 μM) in the presence of low-dose (2 ng/mL) lipopolysaccharide (LPS) as a chronic pro-inflammatory stimulus 11. Treatment with 2 ng/mL LPS alone served as a positive control, while treatment with an equivalent volume of buffer diluted into media served as the vehicle. Cellular supernatant was harvested on day 3 12; these samples were immediately centrifuged at 1200 rpm for 10 min at 25° C. to remove any cells or debris. […] All multi-channel images were converted to TIFF file format via ImageJ64 software for quantitative image analysis using a custom subroutine written in Matlab™ software to obtain the average RAGE expression per volume of cells, and the data generated was assessed for statistical significance using GraphPad Prism 7.0 software 15.
As shown in FIGS. 2B-2D, THP-1 macrophages were treated with JPT1a alone (white) or in the presence of a chronic low-dose (2 ng/mL) of LPS (grey), for 3 days prior to supernatant harvest and storage. Examination of the supernatant via ELISA determined the concentrations of (FIG. 2B) IL-1β, (FIG. 2C) IL-6, and (FIG. 2D) IL-8. […]

IL-8 [2] = test: IL-8 expression in previously LPS-stimulated THP1 macrophages (ELISA); type: cell-based, human; conditions: 25, 5, 1 μM added after 48 h of 2 ng/mL LPS, additional 24 h
Experimental: THP-1 monocytes were differentiated as described above 20. Upon differentiation, these cells were then incubated (48 h) with media containing low-dose (2 ng/mL) LPS as a chronic pro-inflammatory stimulus 21. Following incubation, JPT1a or JPT1 was added for final concentrations of 25, 5, and 1 μM 22, and cells were incubated an additional 24 h. Treatment with 2 ng/mL LPS alone served as a positive control, while treatment with an equivalent volume of buffer diluted into media served as the vehicle. Media was collected for later assessment of cytokines via ELISA as described above 23. Cells were fixed and stained for RAGE, phalloidin (cytoplasmic marker), and DAPI (nuclear marker) 24. Each channel was imaged with a Zeiss LSM 510 META Confocal Scanning Laser Microscope using a plan-neofluar 40×/1.3 oil DIC immersion objective; three of these multi-channel images were obtained from each slide in each experiment. 25 All multi-channel images were converted to TIFF file format via ImageJ64 software for quantitative image analysis using a custom subroutine written in Matlab™ software to obtain the average RAGE expression per volume of cells, and the data generated was assessed for statistical significance using GraphPad Prism 7.0 software 26.
As shown in FIGS. 4B-4D, THP1 macrophages were treated with low-dose LPS at 2 ng/mL. […]

RAGE = RAGE (Homo sapiens, UniProt Q15109); test: Binding affinity for RAGE from binding equilibrium attained in solution (competition ELISA); conditions: 20 nM RAGE, JPT1a 0 to 1000 nM, overnight
Chain of RAGE (Q15109 23-404): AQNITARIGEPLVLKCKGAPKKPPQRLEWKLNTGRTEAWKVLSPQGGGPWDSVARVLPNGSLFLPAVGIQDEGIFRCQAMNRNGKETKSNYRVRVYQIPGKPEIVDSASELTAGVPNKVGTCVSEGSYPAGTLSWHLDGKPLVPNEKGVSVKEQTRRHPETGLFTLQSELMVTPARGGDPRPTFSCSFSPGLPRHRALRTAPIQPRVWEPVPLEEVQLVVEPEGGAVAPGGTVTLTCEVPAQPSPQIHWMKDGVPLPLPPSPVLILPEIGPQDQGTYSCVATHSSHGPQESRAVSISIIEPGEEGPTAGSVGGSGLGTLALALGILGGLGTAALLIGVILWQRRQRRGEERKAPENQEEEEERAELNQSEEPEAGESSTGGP
Experimental: Definitive binding affinity of JPT1a for RAGE was determined from binding equilibrium attained in solution. As shown in FIGS. 8A-8B, 96-well plates coated with 500 nM JPT1a were treated with overnight incubations containing 20 nM RAGE and JPT1a in concentrations ranging from 0 nM to 1000 nM. Absorbance values were used to calculate relative [RAGE]bound and [RAGE]free via the […] (Friguet B, Chaffotte A F, Djavadi-Ohaniance L, Goldberg M E. Measurements of the true affinity constant in solution of antigen-antibody complexes by enzyme-linked immunosorbent assay. J Immunol Methods. 1985; 77(2):305-319; Rath S, Stanley C M. An inhibition enzyme immunoassay for estimating relative antibody affinity and affinity heterogeneity. 1988; 106:245-249; Newton P, Harrison P, Clulow S. A Novel Method for Determination of the Affinity of Protein: Protein Interactions in Homogeneous Assays. 2008:674-682). FIG. 8A. […] Black dashed lines indicate 95% confidence interval, and gray dashed lines indicate 95% prediction interval, n=4. FIG. 8B. […] Dashed lines indicate 95% confidence interval, n=3.

SMILES: CC[C@H](C)N(CC(=O)N(CC(=O)N(CC(=O)N(CC(=O)N(CC(=O)N(CC(=O)N(CC(N)=O)[C@@H](C)c1ccccc1)[C@@H](C)c1ccccc1)[C@@H](C)CC)[C@@H](C)c1ccccc1)[C@@H](C)c1ccccc1)[C@@H](C)CC)C(=O)CNCCCCN [JPT1a] (H-[Nlys][N(1S-Me-propyl)Gly][N(1S-Me-propyl)Gly][Nspe][Nspe][N(1S-Me-propyl)Gly][Nspe][Nspe]-NH2)
- levels of LPS-induced IL-8 (IL-8 [1]; peptoid 10 μM with 2 ng/mL LPS): significantly reduces
- LPS-induced production of IL-8 (IL-8 [1]; peptoid 50 μM with 2 ng/mL LPS): significantly attenuates
- IL-8 production of previously stimulated macrophages (IL-8 [2]): does not affect cytokine production
- Kd (RAGE; n=3, read-out: Kd, plot of specific binding (one epitope)): 79 ± 28.4 nM
- Kd (RAGE; n=4, read-out: binding affinity for RAGE (Scatchard plot)): 139 nM
